Reference: the supplement of paper PMC10307832

Columns and labels:
Experiment in all cases: relative viability (nuclei count vs DMSO), 5 days (fraction); higher = more cells survive
Etoposide + Olaparib = compound: COc1cc([C@@H]2c3cc4c(cc3[C@@H](O[C@@H]3O[C@@H]5CO[C@@H](C)O[C@H]5[C@H](O)[C@H]3O)[C@H]3COC(=O)[C@H]23)OCO4)cc(OC)c1O [Etoposide] + O=C(c1cc(Cc2n[nH]c(=O)c3ccccc23)ccc1F)N1CCN(C(=O)C2CC2)CC1 [Olaparib] (partner 8 µM)
Procedure, shortened: (§1)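 Dosing by pin tool came one day after lung cancer cell lines were seeded in 1536-well plates, using either one drug or a fixed anchor-drug dose plus five library-drug doses (not always all listed) in √10 steps. After 5 days, nuclei were counted on 4× images. Relative viability is treated-well nuclei count divided by vehicle-well nuclei count, and values are medians of duplicate plates.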

Bleomycin + Vorinostat = compound: CC1=C(N=C(N=C1N)[C@H](CC(=O)N)NC[C@@H](C(=O)N)N)C(=O)N[C@@H]([C@H](C2=CN=CN2)OC3C(C(C(C(O3)CO)O)O)OC4C(C(C(C(O4)CO)O)OC(=O)N)O)C(=O)N[C@H](C)[C@H]([C@H](C)C(=O)N[C@@H]([C@@H](C)O)C(=O)NCCC5=NC(=CS5)C6=NC(=CS6)C(=O)NCCC[S+](C)C)O [Bleomycin] + O=C(CCCCCCC(=O)Nc1ccccc1)NO [Vorinostat] (partner 1 µM); details: main component drawn
Procedure, shortened: as §1

Etoposide + Tozasertib = compound: COc1cc([C@@H]2c3cc4c(cc3[C@@H](O[C@@H]3O[C@@H]5CO[C@@H](C)O[C@H]5[C@H](O)[C@H]3O)[C@H]3COC(=O)[C@H]23)OCO4)cc(OC)c1O [Etoposide] + Cc1cc(Nc2cc(N3CCN(C)CC3)nc(Sc3ccc(NC(=O)C4CC4)cc3)n2)n[nH]1 [Tozasertib] (partner 0.1 µM)
Procedure, shortened: as §1

Etoposide + Luminespib = compound: COc1cc([C@@H]2c3cc4c(cc3[C@@H](O[C@@H]3O[C@@H]5CO[C@@H](C)O[C@H]5[C@H](O)[C@H]3O)[C@H]3COC(=O)[C@H]23)OCO4)cc(OC)c1O [Etoposide] + CCNC(=O)c1noc(-c2cc(C(C)C)c(O)cc2O)c1-c1ccc(CN2CCOCC2)cc1 [Luminespib] (partner 0.01 µM)
Procedure, shortened: as §1

Cell Line	relative viability (Etoposide + Olaparib; first compound 0.01 µM)	relative viability (Etoposide + Olaparib; first compound 0.03162 µM)	relative viability (Etoposide + Olaparib; first compound 0.1 µM)	relative viability (Etoposide + Olaparib; first compound 0.3162 µM)	relative viability (Etoposide + Olaparib; first compound 1 µM)	relative viability (Bleomycin + Vorinostat; first compound 0.01 µM)	relative viability (Bleomycin + Vorinostat; first compound 0.03162 µM)	relative viability (Bleomycin + Vorinostat; first compound 0.1 µM)	relative viability (Bleomycin + Vorinostat; first compound 0.3162 µM)	relative viability (Bleomycin + Vorinostat; first compound 1 µM)	relative viability (Etoposide + Tozasertib; first compound 0.01 µM)	relative viability (Etoposide + Tozasertib; first compound 0.03162 µM)	relative viability (Etoposide + Tozasertib; first compound 0.1 µM)	relative viability (Etoposide + Tozasertib; first compound 0.3162 µM)	relative viability (Etoposide + Tozasertib; first compound 1 µM)	relative viability (Etoposide + Luminespib; first compound 0.01 µM)	relative viability (Etoposide + Luminespib; first compound 0.03162 µM)	relative viability (Etoposide + Luminespib; first compound 0.1 µM)	relative viability (Etoposide + Luminespib; first compound 0.3162 µM)	relative viability (Etoposide + Luminespib; first compound 1 µM)
NCI-H1299	0.954	0.964	0.936	0.833	0.65															
EBC-1	0.641	0.689	0.532	0.405	0.266															
NCI-H2405	0.851	0.819	0.701	0.562	0.293	0.792	1	0.816	0.59	0.321	0.745	0.77	0.86	0.576	0.294	0.646	0.65	0.949	0.664	0.301
NCI-H1993		0.884	0.777	0.658	0.54	0.669	0.585	0.864	0.303	0.386	0.634	0.506	0.576	0.495	0.55	0.827	0.726	0.757	0.73	0.48
NCI-H441	0.516	0.463	0.393	0.164	0.155	0.646	0.546	0.686	0.453	0.312	0.511	0.541	0.418	0.289	0.264	0.307	0.28	0.331	0.259	0.256
PC-14	0.239	0.204	0.31	0.135	0.123	0.414	0.406	0.198	0.0393	0.0658	0.595	0.536	0.754	0.496	0.213	0.112	0.172	0.143	0.138	0.151
NCI-H1792	0.348	0.248		0.212	0.152											0.317	0.472	0.205	0.215	0.248
A549	0.32	0.209	0.103	0.0476	0.037															
NCI-H1563																0.502	0.463	0.479	0.408	0.396
HCC-78	0.679	0.795	0.553	0.259	0.235	0.388	0.362	0.487	0.399	0.391	0.375	0.488	0.988	0.264	0.184					
IA-LM	0.674	0.822	0.771	0.681	0.441	0.791	0.802	0.801	0.398	0.635										
NCI-H1703	0.366	0.465	0.424	0.246	0.179															
NCI-H1648		0.885	0.758	0.757	0.358	0.46	0.324	0.275	0.257	0.271		0.359	0.416	0.282	0.28					
